The values below come from patent US11827646B2, “Compounds for treating spinal muscular atrophy” (Hoffmann-La Roche Inc., priority 2014, dated 2023).

The test system of test [1] is full length SMN2 minigene mRNA (HEK293H cells stably transfected with SMN2-A minigene). Briefly: SMN2 minigene mRNA splicing RT-qPCR assay in cultured cells. It is filed as cell-based. The settings on record: Homo sapiens, HEK293-H, 24 hours, 7-point concentration curve, 1.5-fold increase relative to vehicle, read-out: EC1.5x minigene (EC1.5x concentration for production of full length SMN2 minigene mRNA). An excerpt: The term “EC1.5x concentration for production of full length SMN2 minigene mRNA” (or “EC1.5x minigene”) is defined as that concentration of test compound that 1 s effective m increasing the amount of full length SMN2 minigene mRNA to a level 1.5-fold greater relative to that in vehicle-treated cells.
The reverse transcription-quantitative PCR-based (RT-qPCR) assay is used to quantify the level of the full length SMN2 minigene (referred to herein by the term “FL SMN2mini”) mRNA containing SMN2 exon 7 in a HEK293H cell line stably transfected with said minigene and treated with a test compound. Materials used and respective sources are listed below in Table 1.
The SMN2-A minigene construct was prepared as described in International Patent Application WO2009/151546A1 page 145 paragraph [00400] to page 147 paragraph [00412](incl. FIG. 1 and FIG. 3 therein).
HEK293H cells stably transfected with the SMN2-A minigene construct (10,000 cells/well) are seeded in 200 μL of cell culture medium (DMEM plus 10% FBS, with 200 μg/mL hygromycin) in 96-well flat-bottom plates and the plate is immediately swirled to ensure proper dispersal of cells and the formation of an even monolayer of cells. Cells are allowed to attach for 6 hours. Test compounds are serially diluted 3.16-fold in 100% DMSO to generate a 7-point concentration curve. A solution of test compound (1 μL, 200× in DMSO) is added to each cell-containing well and the plate is incubated for 24 hours in a cell culture incubator (37° C., 5% CO2, 100% relative humidity). 2 replicates are prepared for each test compound concentration. The cells are then lysed in the Cells-To-Ct lysis buffer and the lysate is stored at −80° C.
Full length SMN2-A minigene and GAPDH mRNA are quantified using the primers and probes referenced in Table 2. Primer SMN Forward A (SEQ ID NO.1) hybridizes to a nucleotide sequence in exon 7 (nucleotide 22 to nucleotide 40), primer SMN Reverse A (SEQ ID NO.2) hybridizes to a nucleotide sequence in the coding sequence of Firefly luciferase, SMN Probe A (SEQ ID NO.3) hybridizes to a nucleotide sequence in exon 7 (nucleotide 50 to nucleotide 54) and exon 8 (nucleotide 1 to nucleotide 21). The combination of these three oligonucleotides detects only SMN1 or SMN2 minigenes (RT-qPCR) and will not detect endogenous SMN1 or SMN2 genes.
The SMN forward and reverse primers are used at final concentrations of 0.4 μM. The SMN probe is used at a final concentration of 0.15 μM. The GAPDH primers are used at final concentrations of 0.2 μM and the probe at 0.15 μM.
The SMN2-minigene GAPDH mix (15 μL total volume) is prepared by combining 7.5 μL of 2×RT-PCR buffer, 0.4 μL of 25×RT-PCR enzyme mix, 0.75 μL of 20×GAPDH primer-probe mix, 4.0075 μL of water, 2 μL of 10-fold diluted cell lysate, 0.06 μL of 100 µM SMN forward primer, 0.06 μL of 100 μM SMN reverse primer, and 0.225 μL of 100 μM SMN probe.
PCR is carried out at the following temperatures for the indicated time: Step 1: 48° C. (15 min); Step 2: 95° C. (10 min); Step 3: 95° C. (15 sec); Step 4: 60° C. (1 min); then repeat Steps 3 and 4 for a total of 40 cycles.
Each reaction mixture contains both SMN2-A minigene and GAPDH primers/probe sets (multiplex design), allowing simultaneous measurement of the levels of two transcripts.
The increase in the abundance of the FL SMN2mini mRNA relative to that in cells treated with vehicle control is determined from real-time PCR data using a modified ΔΔCt method (as described in Livak and Schmittgen, Methods, 2001, 25:402-8). The amplification efficiency E is calculated from the slope of the amplification curve for FL SMN2mini and GAPDH individually. The abundance of FL SMN2mini and GAPDH mRNA are then calculated as (1+E)^−Ct, where Ct is the threshold value for each amplicon. The abundance of FL SMN2mini mRNA is normalized to GAPDH mRNA abundance. […]
A general note: In qPCR the cycle at which signal appears reflects the starting amount.

For test [2], the system named is SMN protein in SMA patient fibroblast cells (GM03813). Briefly: SMN protein assay in cultured cells (SMN HTRF). It is filed as cell-based. The settings on record: Homo sapiens, SMA Type 1 patient fibroblasts, 48 hours; for EC (1.5-fold): 7-point concentration curve, 1.5 times SMN protein vs vehicle, read-out: EC1.5x SMN protein (EC1.5x concentration for SMN protein expression); for maximal fold induction: fold increase relative to vehicle control, read-out: max. fold increase of SMN protein. An excerpt:
The term “EC1.5x concentration for SMN protein expression” (or “EC1.5x SMN protein”) is defined as that concentration of test compound that is effective in producing 1.5 times the amount of SMN protein in an SMA patient fibroblast cell compared to the amount produced from the vehicle control.
The SMN HTRF (homogeneous time resolved fluorescence) assay is used to quantify the level of SMN protein in SMA patient fibroblast cells treated with test compounds. Materials used and respective sources are listed below in Table 4.
Cells are thawed and cultured in DMEM-10% FBS for 72 hours. Cells are trypsinized, counted and re-suspended to a concentration of 25,000 cells/mL in DMEM-10% FBS. The cell suspensions are plated at 5,000 cells per well in a 96 well microtiter plate and incubated for 3 to […]. Test compounds are serially diluted 3.16-fold in 100% DMSO to generate a 7-point concentration curve. 1 μL of test compound solution is transferred to cell-containing wells and cells are incubated for 48 hours in a cell culture incubator (37° C., 5% CO2, […]). Triplicate samples are set up for each test compound concentration. After 48 hours, the supernatant is removed from the wells and 25 μL of the RIPA lysis buffer, containing protease inhibitors, is added to the wells and incubated with shaking at room temperature for 1 hour. 25 μL of the diluent is added and then 35 μL of the resulting lysate is transferred to a 384-well plate, where each well contains 5 μL of the antibody solution (1:100 dilution of anti-SMN d2 and anti-SMN kryptate in SMN reconstitution buffer). The plate is centrifuged for 1 minute to bring the solution to the bottom of the wells, then incubated overnight at room temperature. Fluorescence for each well of the plate at 665 nm and 620 nm is measured on an EnVision multilabel plate reader (Perkin-Elmer).
The normalized fluorescence signal is calculated for each sample, Blank and vehicle control well by dividing the signal at 665 nm by the signal at 620 nm. Normalizing the signal accounts for possible fluorescence quenching due to the matrix effect of the lysate. The ΔF value (a measurement of SMN protein abundance as a percent value) for each sample well is calculated by subtracting the normalized average fluorescence for the Blank control wells from the normalized fluorescence for each sample well, then dividing this difference by the normalized average fluorescence for the Blank control wells and multiplying the resulting value by 100. The ΔF value for each sample well represents the SMN protein abundance from test compound-treated samples. The ΔF value for each sample well is divided by the ΔF value for the vehicle control wells to calculate the fold increase in SMN protein abundance relative to the vehicle control. Table 5 provides EC1.5x concentrations for SMN protein expression that was obtained from the 7-point concentration data generated according to the above procedure for particular compounds of the present invention.
Table 6 provides the maximum fold increase of SMN protein that was obtained from the 7-point concentration data generated according to the above procedure for particular compounds of the present invention
A general note: Time-resolved FRET reads energy transfer from a long-lived donor to a nearby acceptor.

In the case of `Cc1cn2nc(-c3cc(=O)n4cc(N5CCCNCC5)ccc4n3)cc(C)c2n1` [Example 10, 7-(1,4-diazepan-1-yl)-2-(2,8-dimethylimidazo[1,2-b]pyridazin-6-yl)pyrido[1,2-a]pyrimidin-4-one], the EC (1.5-fold) amounted to 0.0064 µM in test [1] and 0.0228 µM in test [2]. For the same compound, in test [2], the maximal fold induction was found to be 1.95.

In the case of `Cc1cn2nc(-c3cc(=O)n4cc(N5CCN[C@@H](C)C5)ccc4n3)ccc2n1` [Example 11, 2-(2-methylimidazo[1,2-b]pyridazin-6-yl)-7-[(3S)-3-methylpiperazin-1-yl]pyrido[1,2-a]pyrimidin-4-one], the EC (1.5-fold) in test [1] was found to be 0.0014 µM. Further, in test [2], the EC (1.5-fold) worked out at 0.007 µM and the maximal fold induction worked out at 1.9.

Consider `Cc1cn2nc(-c3cc(=O)n4cc(N5CCN[C@H](C)C5)ccc4n3)ccc2n1` [Example 12, 2-(2-methylimidazo[1,2-b]pyridazin-6-yl)-7-[(3R)-3-methylpiperazin-1-yl]pyrido[1,2-a]pyrimidin-4-one], for which the EC (1.5-fold) in test [1] is 0.0012 µM. For the same compound, in test [2], the EC (1.5-fold) was found to be 0.0075 µM and the maximal fold induction amounted to 1.77.

Turning to `Cc1cn2nc(-c3cc(=O)n4cc(N5CCCNCC5)ccc4n3)ccc2n1` [Example 13, 7-(1,4-diazepan-1-yl)-2-(2-methylimidazo[1,2-b]pyridazin-6-yl)pyrido[1,2-a]pyrimidin-4-one], the EC (1.5-fold) in test [1] was found to be 0.005 µM; in test [2], 0.003 µM. Also, in test [2], the maximal fold induction was determined as 1.91.

As to `Cc1cn2nc(-c3cc(=O)n4cc(N5C[C@@H](C)N[C@@H](C)C5)ccc4n3)ccc2n1` [Example 14, 7-[(3R,5S)-3,5-dimethylpiperazin-1-yl]-2-(2-methylimidazo[1,2-b]pyridazin-6-yl)pyrido[1,2-a]pyrimidin-4-one], the EC (1.5-fold) in test [1] was determined as 0.0041 µM. In addition, in test [2], the EC (1.5-fold) is 0.0176 µM and the maximal fold induction came out at 1.86.

`Cc1cn2nc(-c3cc(=O)n4cc(N5CCN6CCC[C@H]6C5)ccc4n3)ccc2n1` [Example 15, 7-[(8aS)-3,4,6,7,8,8a-hexahydro-1H-pyrrolo[1,2-a]pyrazin-2-yl]-2-(2-methylimidazo[1,2-b]pyridazin-6-yl)pyrido[1,2-a]pyrimidin-4-one]: the EC (1.5-fold) in test [1] is 0.004 µM; in test [2] it was 0.0212 µM. Also, the maximal fold induction in test [2] worked out at 1.94.

Consider `Cc1cn2nc(-c3cc(=O)n4cc(N5CCN6CCC[C@@]6(C)C5)ccc4n3)ccc2n1` [Example 16, 7-[(8aS)-8a-methyl-1,3,4,6,7,8-hexahydropyrrolo[1,2-a]pyrazin-2-yl]-2-(2-methylimidazo[1,2-b]pyridazin-6-yl)pyrido[1,2-a]pyrimidin-4-one], for which the EC (1.5-fold) in test [1] stood at 0.0011 µM; in test [2], 0.003 µM. In addition, the maximal fold induction in test [2] stood at 1.83.

For `Cc1cn2nc(-c3cc(=O)n4cc(N5CCN6CCC[C@]6(C)C5)ccc4n3)ccc2n1` [Example 17, 7-[(8aR)-8a-methyl-1,3,4,6,7,8-hexahydropyrrolo[1,2-a]pyrazin-2-yl]-2-(2-methylimidazo[1,2-b]pyridazin-6-yl)pyrido[1,2-a]pyrimidin-4-one], the EC (1.5-fold) in test [1] turned out to be 0.0064 µM; in test [2], 0.0202 µM. Further, the maximal fold induction in test [2] stood at 1.98.

Take `Cc1cn2nc(-c3cc(=O)n4cc(N5CC[C@@H](N6CCCC6)C5)ccc4n3)cc(C)c2n1` [Example 18, 2-(2,8-dimethylimidazo[1,2-b]pyridazin-6-yl)-7-[(3R)-3-pyrrolidin-1-ylpyrrolidin-1-yl]pyrido[1,2-a]pyrimidin-4-one]: the EC (1.5-fold) in test [1] worked out at 0.0036 µM. Besides, in test [2], the EC (1.5-fold) was determined as 0.025 µM and the maximal fold induction amounted to 1.75.

Regarding `Cc1cn2nc(-c3cc(=O)n4cc(N5CCNC6(CC6)C5)ccc4n3)cc(C)c2n1` [Example 20, 7-(4,7-diazaspiro[2.5]octan-7-yl)-2-(2,8-dimethylimidazo[1,2-b]pyridazin-6-yl)pyrido[1,2-a]pyrimidin-4-one], the EC (1.5-fold) in test [1] worked out at 0.0043 µM; in test [2], 0.037 µM. Further, the maximal fold induction in test [2] was 1.72.

As to `Cc1cn2nc(-c3cc(=O)n4cc(N5CC[C@@H](N6CCCC6)C5)ccc4n3)ccc2n1` [Example 21, 2-(2-methylimidazo[1,2-b]pyridazin-6-yl)-7-[(3R)-3-pyrrolidin-1-ylpyrrolidin-1-yl]pyrido[1,2-a]pyrimidin-4-one], the EC (1.5-fold) in test [1] turned out to be 0.0096 µM. Moreover, in test [2], the EC (1.5-fold) is 0.0687 µM and the maximal fold induction is 1.54.

Turning to `Cc1cn2nc(-c3cc(=O)n4cc(N5CCNC(C)(C)C5)ccc4n3)cc(C)c2n1` [Example 22, 2-(2,8-dimethylimidazo[1,2-b]pyridazin-6-yl)-7-(3,3-dimethylpiperazin-1-yl)pyrido[1,2-a]pyrimidin-4-one], in test [1], the EC (1.5-fold) was 0.0009 µM. Moreover, in test [2], the EC (1.5-fold) came to 0.0138 µM and the maximal fold induction turned out to be 1.69.
